In ChEMBL document CHEMBL3045770, “Design and synthesis of some thieno[2,3-c]pyridazine derivatives of expected anticancer activity” (2013):

Experiments:
Type in all cases: functional
[1] = tested on: SNB-19; test: Cytotoxicity against Homo sapiens (human) SNB19 assessed as cell growth at 10 uM after 48 hr by SRB assay relative to control; conditions: SNB-19, 48 h, read-out: Activity
[2] = tested on: SF-295; test: Cytotoxicity against Homo sapiens (human) SF295 assessed as cell growth at 10 uM after 48 hr by SRB assay relative to control; conditions: SF-295, 48 h, read-out: Activity
[3] = tested on: KM12; test: Cytotoxicity against Homo sapiens (human) KM12 assessed as cell growth at 10 uM after 48 hr by SRB assay relative to control; conditions: KM12, 48 h, read-out: Activity
[4] = tested on: HT-29; test: Cytotoxicity against Homo sapiens (human) HT-29 assessed as cell growth at 10 uM after 48 hr by SRB assay relative to control; conditions: HT-29, 48 h, read-out: Activity
[5] = tested on: HCT-116; test: Cytotoxicity against Homo sapiens (human) HCT116 assessed as cell growth at 10 uM after 48 hr by SRB assay relative to control; conditions: HCT-116, 48 h, read-out: Activity
[6] = tested on: HCC 2998; test: Cytotoxicity against Homo sapiens (human) HCC2998 assessed as cell growth at 10 uM after 48 hr by SRB assay relative to control; conditions: HCC 2998, 48 h, read-out: Activity
[7] = tested on: NCI-H522; test: Cytotoxicity against Homo sapiens (human) NCI-H522 assessed as cell growth at 10 uM after 48 hr by SRB assay relative to control; conditions: NCI-H522, 48 h, read-out: Activity
[8] = tested on: NCI-H460; test: Cytotoxicity against Homo sapiens (human) NCI-H460 assessed as cell growth at 10 uM after 48 hr by SRB assay relative to control; conditions: NCI-H460, 48 h, read-out: Activity
[9] = tested on: NCI-H226; test: Cytotoxicity against Homo sapiens (human) NCI-H226 assessed as cell growth at 10 uM after 48 hr by SRB assay relative to control; conditions: NCI-H226, 48 h, read-out: Activity
[10] = tested on: NCI-H23; test: Cytotoxicity against Homo sapiens (human) NCI-H23 assessed as cell growth at 10 uM after 48 hr by SRB assay relative to control; conditions: NCI-H23, 48 h, read-out: Activity
[11] = tested on: HOP-62; test: Cytotoxicity against Homo sapiens (human) HOP62 assessed as cell growth at 10 uM after 48 hr by SRB assay relative to control; conditions: HOP-62, 48 h, read-out: Activity
[12] = tested on: A549; test: Cytotoxicity against Homo sapiens (human) A549 assessed as cell growth at 10 uM after 48 hr by SRB assay relative to control; conditions: A549, 48 h, read-out: Activity
[13] = tested on: MOLT-4; test: Cytotoxicity against Homo sapiens (human) MOLT4 assessed as cell growth at 10 uM after 48 hr by SRB assay relative to control; conditions: MOLT-4, 48 h, read-out: Activity
[14] = tested on: SN12C; test: Cytotoxicity against Homo sapiens (human) SN12C assessed as cell growth at 10 uM after 48 hr by SRB assay relative to control; conditions: read-out: Activity
[15] = tested on: CAKI-1; test: Cytotoxicity against Homo sapiens (human) Caki1 assessed as cell growth at 10 uM after 48 hr by SRB assay relative to control; conditions: CAKI-1, 48 h, read-out: Activity
[16] = tested on: SK-OV-3; test: Cytotoxicity against Homo sapiens (human) SKOV3 assessed as cell growth at 10 uM after 48 hr by SRB assay relative to control; conditions: SK-OV-3, 48 h, read-out: Activity
[17] = tested on: MCF7; test: Cytotoxicity against Homo sapiens (human) MCF7 assessed as cell growth at 10 uM after 48 hr by SRB assay relative to control; conditions: MCF7, 48 h, read-out: Activity
[18] = Cytotoxicity against Homo sapiens (human) NCI-ADR-RES assessed as cell growth at 10 uM after 48 hr by SRB assay relative to control; conditions: read-out: Activity
[19] = tested on: OVCAR-3; test: Cytotoxicity against Homo sapiens (human) OVCAR3 assessed as cell growth at 10 uM after 48 hr by SRB assay relative to control; conditions: OVCAR-3, 48 h, read-out: Activity
[20] = tested on: OVCAR-5; test: Cytotoxicity against Homo sapiens (human) OVCAR5 assessed as cell growth at 10 uM after 48 hr by SRB assay relative to control; conditions: OVCAR-5, 48 h, read-out: Activity
[21] = tested on: UACC-62; test: Cytotoxicity against Homo sapiens (human) UACC62 assessed as cell growth at 10 uM after 48 hr by SRB assay relative to control; conditions: UACC-62, 48 h, read-out: Activity
[22] = tested on: SK-MEL-28; test: Cytotoxicity against Homo sapiens (human) SK-MEL-28 assessed as cell growth at 10 uM after 48 hr by SRB assay relative to control; conditions: SK-MEL-28, 48 h, read-out: Activity
[23] = tested on: SK-MEL-5; test: Cytotoxicity against Homo sapiens (human) SK-MEL-5 assessed as cell growth at 10 uM after 48 hr by SRB assay relative to control; conditions: SK-MEL-5, 48 h, read-out: Activity
[24] = tested on: M14; test: Cytotoxicity against Homo sapiens (human) M14 assessed as cell growth at 10 uM after 48 hr by SRB assay relative to control; conditions: M14, 48 h, read-out: Activity
[25] = tested on: MDA-MB-435; test: Cytotoxicity against Homo sapiens (human) MDA-MB-435 assessed as cell growth at 10 uM after 48 hr by SRB assay relative to control; conditions: MDA-MB-435, 48 h, read-out: Activity
[26] = tested on: LOX IMVI; test: Cytotoxicity against Homo sapiens (human) LOXIMVI assessed as cell growth at 10 uM after 48 hr by SRB assay relative to control; conditions: read-out: Activity
[27] = tested on: CCRF-CEM; test: Cytotoxicity against Homo sapiens (human) CCRF-CEM assessed as cell growth at 10 uM after 48 hr by SRB assay relative to control; conditions: read-out: Activity
[28] = tested on: HL-60(TB); test: Cytotoxicity against Homo sapiens (human) HL-60(TB) assessed as cell growth at 10 uM after 48 hr by SRB assay relative to control; conditions: HL-60, 48 h, read-out: Activity
[29] = tested on: 786-0; test: Cytotoxicity against Homo sapiens (human) 786-0 assessed as cell growth at 10 uM after 48 hr by SRB assay relative to control; conditions: 786-0, 48 h, read-out: Activity
[30] = tested on: BT-549; test: Cytotoxicity against Homo sapiens (human) BT549 assessed as cell growth at 10 uM after 48 hr by SRB assay relative to control; conditions: BT-549, 48 h, read-out: Activity
[31] = tested on: Hs-578T; test: Cytotoxicity against Homo sapiens (human) Hs 578T assessed as cell growth at 10 uM after 48 hr by SRB assay relative to control; conditions: read-out: Activity
[32] = tested on: DU-145; test: Cytotoxicity against Homo sapiens (human) DU145 assessed as cell growth at 10 uM after 48 hr by SRB assay relative to control; conditions: DU-145, 48 h, read-out: Activity
[33] = tested on: EKVX; test: Cytotoxicity against Homo sapiens (human) EKVX assessed as cell growth at 10 uM after 48 hr by SRB assay relative to control; conditions: read-out: Activity

SMILES: CC(=O)Oc1c(C2=NN(C(C)=O)C(c3ccccc3[N+](=O)[O-])O2)sc2nnc(-c3ccccc3)c(-c3ccccc3)c12 (stereo unspecified)
- growth at 10 µM [1]: 88.6%
- growth at 10 µM [2]: 85%
- growth at 10 µM [3]: 108%
- growth at 10 µM [4]: 87.5%
- growth at 10 µM [5]: 76.8%
- growth at 10 µM [6]: 120%
- growth at 10 µM [7]: 92%
- growth at 10 µM [8]: 100%
- growth at 10 µM [9]: 93%
- growth at 10 µM [10]: 101%
- growth at 10 µM [11]: 109%
- growth at 10 µM [12]: 103%
- growth at 10 µM [13]: 47.2%
- growth at 10 µM [14]: 76.3%
- growth at 10 µM [15]: 98%
- growth at 10 µM [16]: 106%
- growth at 10 µM [17]: 64%
- growth at 10 µM [18]: 98.4%
- growth at 10 µM [19]: 93.4%
- growth at 10 µM [20]: 95.1%
- growth at 10 µM [21]: 80%
- growth at 10 µM [22]: 97.1%
- growth at 10 µM [23]: 98.5%
- growth at 10 µM [24]: 91.8%
- growth at 10 µM [25]: 97.9%
- growth at 10 µM [26]: 105%
- growth at 10 µM [27]: 19.6%
- growth at 10 µM [28]: 58.9%
- growth at 10 µM [29]: 102%
- growth at 10 µM [30]: 89.8%
- growth at 10 µM [31]: 114%
- growth at 10 µM [32]: 104%

SMILES: CC1=NN(C(=O)c2sc3nnc(-c4ccccc4)c(-c4ccccc4)c3c2O)C(=O)C1
- growth at 10 µM [1]: 60.7%
- growth at 10 µM [2]: 48.8%
- growth at 10 µM [3]: 71.3%
- growth at 10 µM [4]: 119%
- growth at 10 µM [5]: 89.8%
- growth at 10 µM [6]: 59.7%
- growth at 10 µM [7]: 87.4%
- growth at 10 µM [8]: 52.2%
- growth at 10 µM [9]: 91.9%
- growth at 10 µM [10]: 82.6%
- growth at 10 µM [33]: 74.3%
- growth at 10 µM [11]: 82.8%
- growth at 10 µM [12]: 84.5%
- growth at 10 µM [13]: 67.8%
- growth at 10 µM [14]: 93.8%
- growth at 10 µM [15]: 31%
- growth at 10 µM [16]: 90.6%
- growth at 10 µM [17]: 85.1%
- growth at 10 µM [18]: 16%
- growth at 10 µM [19]: 84.7%
- growth at 10 µM [20]: 117%
- growth at 10 µM [21]: 77.4%
- growth at 10 µM [22]: 83.5%
- growth at 10 µM [23]: 80.2%
- growth at 10 µM [24]: 87.4%
- growth at 10 µM [25]: 83.7%
- growth at 10 µM [26]: 97.6%
- growth at 10 µM [27]: 49.5%
- growth at 10 µM [28]: 69.4%
- growth at 10 µM [29]: 65.9%
- growth at 10 µM [30]: 104%
- growth at 10 µM [31]: 89.6%
- growth at 10 µM [32]: 97.8%

SMILES: CCOC(=O)c1c(Nc2ccc(S(N)(=O)=O)cc2)nnc(-c2ccccc2)c1-c1ccccc1
- growth at 10 µM [1]: 108%
- growth at 10 µM [2]: 88.5%
- growth at 10 µM [3]: 104%
- growth at 10 µM [4]: 118%
- growth at 10 µM [5]: 93.3%
- growth at 10 µM [6]: 96.8%
- growth at 10 µM [7]: 111%
- growth at 10 µM [8]: 108%
- growth at 10 µM [9]: 102%
- growth at 10 µM [10]: 115%
- growth at 10 µM [33]: 105%
- growth at 10 µM [11]: 108%
- growth at 10 µM [12]: 90.9%
- growth at 10 µM [13]: 78.2%
- growth at 10 µM [14]: 104%
- growth at 10 µM [15]: 83.8%
- growth at 10 µM [16]: 108%
- growth at 10 µM [18]: 96.8%
- growth at 10 µM [19]: 118%
- growth at 10 µM [20]: 116%
- growth at 10 µM [21]: 90.2%
- growth at 10 µM [22]: 107%
- growth at 10 µM [23]: 94.6%
- growth at 10 µM [24]: 104%
- growth at 10 µM [25]: 107%
- growth at 10 µM [26]: 99.4%
- growth at 10 µM [27]: 81.8%
- growth at 10 µM [28]: 71.2%
- growth at 10 µM [30]: 95%
- growth at 10 µM [31]: 116%
- growth at 10 µM [32]: 120%
